In ChEMBL document CHEMBL6182875, “Cinerols L-R, Anti-inflammatory Meroterpenoids from the Marine Sponge Dysidea cinerea” (J Nat Prod, 2025):
Activity calls are given as the source filed them. The rule behind the calls is not given here.

Experiments:
RAW264.7 [1] = assay: Cytotoxicity against mouse RAW264.7 cells assessed as effect on cell viability at 2.5 to 20 uM measured after 24 hrs by CCK8 assay; assay type: toxicity, cell-based; conditions: raw264.7, 24 h, dose 2.5-20 µM
RAW264.7 [2] = assay: Inhibition of MAPK signaling pathway in mouse RAW264.7 cells assessed as decrease in JNK phosphorylation at 2.5 to 5 uM pretreated for 1 hr followed by LPS stimulation for 25 mins by western blot analysis; assay type: cell-based; conditions: dose 2.5-5 µM, time 85.0 min
RAW264.7 [3] = assay: Inhibition of MAPK signaling pathway in mouse RAW264.7 cells assessed as decrease in p38 phosphorylation at 2.5 to 5 uM pretreated for 1 hr followed by LPS stimulation for 25 mins by western blot analysis; assay type: cell-based; conditions: dose 2.5-5 µM, time 85.0 min
RAW264.7 [4] = assay: Antiinflammatory activity against mouse RAW264.7 cells assessed as inhibition of LPS-induced IL-6 production pretreated for 2 hrs followed by LPS stimulation for 24 hrs by ELISA; assay type: functional, cell-based; conditions: dose 2.5-20 µM, time 26.0 hrs
RAW264.7 [5] = assay: Inhibition of NF-kappaB signaling pathway in mouse RAW264.7 cells assessed as decrease in NF-kappaB p65 phosphorylation at Ser536 residue at 2.5 to 5 uM pretreated for 1 hr followed by LPS stimulation for 25 mins by western blot analysis; assay type: cell-based; conditions: dose 2.5-5 µM, time 85.0 min
RAW264.7 [6] = assay: Antiinflammatory activity against mouse RAW264.7 cells assessed as inhibition of LPS-induced COX-2 protein expression at 2.5 to 5 uM pretreated for 1 hr followed by LPS stimulation for 25 mins by western blot analysis; assay type: functional, cell-based; conditions: dose 2.5-5 µM, time 85.0 min
RAW264.7 [7] = assay: Antiinflammatory activity against mouse RAW264.7 cells assessed as inhibition of LPS-induced PGE2 production pretreated for 2 hrs followed by LPS stimulation for 24 hrs by ELISA; assay type: functional, cell-based; conditions: dose 2.5-20 µM, time 26.0 hrs
RAW264.7 [8] = assay: Antiinflammatory activity against mouse RAW264.7 cells assessed as inhibition of LPS-induced NO production pretreated for 2 hrs followed by LPS stimulation for 24 hrs by ELISA; assay type: functional, cell-based; conditions: dose 2.5-20 µM, time 26.0 hrs
RAW264.7 [9] = assay: Antiinflammatory activity against mouse RAW264.7 cells assessed as inhibition of LPS-induced TNF-alpha production pretreated for 2 hrs followed by LPS stimulation for 24 hrs by ELISA; assay type: functional, cell-based; conditions: dose 2.5-20 µM, time 26.0 hrs
RAW264.7 [10] = assay: Inhibition of MAPK signaling pathway in mouse RAW264.7 cells assessed as decrease in ERK1/2 phosphorylation at 2.5 to 5 uM pretreated for 1 hr followed by LPS stimulation for 25 mins by western blot analysis; assay type: cell-based; conditions: dose 2.5-5 µM, time 85.0 min
RAW264.7 [11] = assay: Inhibition of NF-kappaB signaling pathway in mouse RAW264.7 cells assessed as decrease in IkappaBalpha phosphorylation at Ser32 residue at 2.5 to 5 uM pretreated for 1 hr followed by LPS stimulation for 25 mins by western blot analysis; assay type: cell-based; conditions: dose 2.5-5 µM, time 85.0 min

**Q.** How did the Activity (RAW264.7 [1]) turn out when `CC(=O)c1cc(O)cc(C[C@]2(C)[C@@H](C)CC[C@]3(C)C(C)=CCC[C@@H]23)c1O` was run?
**A.** Its Activity is “Non-toxic”.

**Q.** For `C[C@H]1CC[C@@]2(C)[C@@H](CC[C@@H](O)[C@@]2(C)O)[C@]1(C)Cc1cc(O)cc2nc3n(c12)CCC3`, which Activity (RAW264.7 [1]) is on record?
**A.** Its Activity is “Non-toxic”.

**Q.** How did the Activity (RAW264.7 [1]) turn out when `CC1=CCC[C@H]2[C@](C)(CC3=CC(=O)C=C(NCCO)C3=O)[C@@H](C)CC[C@]12C` was run?
**A.** Its Activity is “Non-toxic”.

**Q.** `CC1=CCC[C@H]2[C@](C)(CC3=CC(=O)C=C(N(C)CCO)C3=O)[C@@H](C)CC[C@]12C` was tested. Which Activity (RAW264.7 [1]) did it give?
**A.** Its Activity is “Non-toxic”.

**Q.** With `CC1=CCC[C@H]2[C@](C)(CC3=CC(=O)C(NCCO)=CC3=O)[C@@H](C)CC[C@]12C` as the compound, how does the Activity (RAW264.7 [1]) read?
**A.** The Activity was “Non-toxic”.

**Q.** With `C=C1CCC[C@H]2[C@](C)(Cc3cc(O)cc(C(C)=O)c3O)[C@@H](C)CC[C@]12C` as the compound, how does the inhibition (RAW264.7 [2]) read?
**A.** Its inhibition is “Active”.

**Q.** And the inhibition (RAW264.7 [3])?
**A.** The inhibition was “Active”.

**Q.** What about the Activity (RAW264.7 [4]) of the same compound?
**A.** The Activity was “Dose-dependent-effect”.

**Q.** What about the inhibition (RAW264.7 [5]) of the same compound?
**A.** Its inhibition is “Active”.

**Q.** What about the Activity (RAW264.7 [6]) of the same compound?
**A.** The Activity was “Active”.

**Q.** And the Activity (RAW264.7 [7])?
**A.** The Activity was “Dose-dependent-effect”.

**Q.** What about the Activity (RAW264.7 [8]) of the same compound?
**A.** The Activity was “Dose-dependent-effect”.

**Q.** And the Activity (RAW264.7 [1])?
**A.** Its Activity is “Non-toxic”.

**Q.** What about the Activity (RAW264.7 [9]) of the same compound?
**A.** Its Activity is “Dose-dependent-effect”.

**Q.** And the inhibition (RAW264.7 [10])?
**A.** The inhibition was “Active”.

**Q.** And the inhibition (RAW264.7 [11])?
**A.** The inhibition was “Active”.

**Q.** With `CC1=CCC[C@H]2[C@](C)(Cc3cc4c(cc3O)[n+](CCS(=O)(=O)[O-])c3n4CCC3)[C@@H](C)CC[C@]12C` as the compound, how does the Activity (RAW264.7 [1]) read?
**A.** The Activity was “Non-toxic”.
